{
  "source": "patent US20150079071A1",
  "about": "“NON-CATALYTIC DOMAIN TARGETS IN MATRIX METALLOPROTEASE PROTEINS FOR CANCER THERAPIES” (THE REGENTS OF THE UNIVERSITY OF CALIFORNIA, priority 2012, published 2015)",
  "type_in_all_cases": "cell-based, mouse",
  "key": {"[1]": {"system": "primary mammary organoids and EpH4 cells", "assay": "Branching morphogenesis (invasion/branching) assay in collagen-1 gels", "settings": "9 nM FGF2, inhibitors 40 μM; for invasion/branching in sparse CL-1 gels: sparse CL-1 1 mg/ml", "experimental": "Single cells were removed by centrifugation and the clusters were then washed three times with DMEM/F12. Cell clusters and primary organoids were embedded in collagen-1 gels. Briefly, acid-extracted type I collagen (Koken, Tokyo, Japan) was mixed gently on ice (8 vol) with 1 vol of 10×DMEM/F12, then pH is adjusted to 7.4 with 0.1N NaOH. Collagen solution was added into each well of a 48-well plate, which was then incubated at 37° C. to allow gelation. EpH4 cell clusters or primary organoids were suspended in collagen at 3 mg/ml or 1 mg/ml, poured onto the basal collagen layer and placed at 37° C. for gelation. After gelation of the collagen, growth medium containing 9 nM FGF2 was added to the wells. Branching morphogenesis was assessed using a Nikon Diaphot 300 microscope and clusters were scored as positive when displaying three or more branches of length at least half the diameter of the central cell cluster."}, "Mmp14 and Itgb1": {"system": "Mmp14 and Itgb1", "assay": "Immunoblot of Mmp14 and Itgb1 levels in EpH4 cells", "experimental": "Samples were lysed using modified RIPA buffer (50 mM HEPES pH 7.4, 150 mM NaCl, 10% glycerol, 1% Triton X-100, 10 mM sodium pyrophosphate containing 1.5 mM MgCl2, 1 mM EGTA, 1% sodium deoxycholate, 0.25 mM Na3VO4, 100 mM NaF and proteinase inhibitor cocktail (EMD Millipore, Billerica, USA)). Protein concentration was determined using the BCA Protein Assay kit (Thermo Scientific, Waltham, USA), following the manufacturer's instructions. Protein samples (10 μg) were mixed with Laemmeli sample buffer and heated at 95° C. for 5 minutes. Samples were loaded into a pre-cast 4-20% tris-glycine polyacrylamide gel (Invitrogen) using the NOVEX system (Invitrogen). Resolved proteins were transferred to nitrocellulose membrane (Whatman, Maidstone, UK) followed by blocking in PBS, 0.05% Tween-20 with 5% w/v non-fat dry milk for 1 hour at room temperature (RT). Membranes were incubated overnight at 4° C. in 5% BSA, 0.1% Tween-20 in PBS containing antibodies that recognize either phosphorylated Erk1/2, total Erk1/2 (Cell Signaling). Anti-Mmp14 (Abcam, Cambridge, USA), anti-Itgb1 (Santa Cruz Biotechnology, Santa Cruz, USA), anti-Itgb1 p788/789 (Abcam), anti-LAM A/C (Santa Cruz Biotechnology), anti-Actin (Abcam), anti-FLAG (Sigma) and rabbit IgG (Sigma) antibodies were used for immunoblotting. Primary antibodies were detected with HRP conjugated anti-IgG (Thermo) and the Pierce SuperSignal detection kit. Chemiluminescence ignal was captured with a FluorChem 8900 analysis system (Alpha Innotech, San Leandro, USA)."}, "SCp2 cells": {"system": "SCp2 cells", "assay": "Invasion assay in Boyden chambers", "settings": "for invasion of FL and EA-SCp2 cells: SCp2 overexpressing MMP3 constructs containing the hemopexin domain; for invasion of dPEX-SCp2 or control cells: SCp2 with hemopexin-deleted MMP3 or control vector", "experimental": "Cell culture inserts (8 μm, 24-well format; BD Biosciences) were evenly coated with 20 μL of diluted (1:5 in DMEM/F-12 medium) Matrigel (BD Biosciences). Cells (1×10^5) in 200 μL of DMEM/F-12 medium or different CM (as indicated in each experiment) were added to the upper compartment of the chamber. The lower compartment of the chamber was filled with 300 μL of medium containing 10% FBS as a chemoattractant. After 48 h of incubation at 37° C., the top side of the insert was cleared from noninvasive cells with a cotton swab and washed with serum-free DMEM/F-12. The remaining (invasive) cells at the lower surface of the filter were fixed and stained with a solution of Coomassie Blue 0.125% in methanol:acetic acid:H2O (45%:10%:45% [v/v/v]) for 15 min. Invasive cells were scored by counting 10×20 magnification fields per filter with a Zeiss Imager Z1 microscope using a 20× objective. Mouse embryonic fibroblast NIH/3T3 cells were routinely included as a positive control. Results are expressed as mean±SD from three independent experiments."}, "[2]": {"system": "primary mammary organoids", "assay": "Branching morphogenesis assay of primary mammary organoids in 3D Col-1 gels", "experimental": "Primary organoids or clustered EpH4 cells were embedded in 3D Col-1 gels as previously published (Simian et al. 2001; Mori et al. 2013). In brief, acid-solubilized Col-1 solution was mixed gently on ice with 1 vol of 10×DMEM/F-12 (pH adjusted to 7.4 with 0.1 M NaOH), and the concentration was adjusted to 3 mg/mL with DMEM/F-12. A basal layer of 80 μL of Col-1 was poured into each well of an eight-well chambered coverglass (155409, Thermo Scientific) and allowed to gel for 5 min at 37° C. A second layer of 200 μL of Col-1 containing 150 organoids or EpH4 clusters was added to each well and placed immediately at 37° C. After gelation, 400 μL of chemically defined medium (DMEM/F-12 containing 1% insulin/transferrin/selenium, 1% penicilin/streptomycin) with 9 nM TGFα (Sigma) or 9 nM bFGF (Sigma) was added to each well (unless stated otherwise) and replaced every other day.\nAfter 3 d of culture, gels were fixed with 4% formalin for 30 min and stained with phalloidin and DAPI for 1 h. Structures were imaged with an upright Zeiss LSM710 using a 0.8 NA 20× air objective. […] The number of extending processes and their average length were determined using the Imaris program (Bitplane). […] Fifty structures were counted per condition, and the experiments were executed at least three times."}, "Erk": {"system": "Erk", "assay": "Immunoblot of phospho-Erk / total Erk (MAPK activity)", "settings": "EpH4 cells in CL-1 gels", "protocol": "Samples were lysed using modified RIPA buffer (50 mM HEPES pH 7.4, 150 mM NaCl, 10% glycerol, 1% Triton X-100, 10 mM sodium pyrophosphate containing 1.5 mM MgCl2, 1 mM EGTA, 1% sodium deoxycholate, 0.25 mM Na3VO4, 100 mM NaF and proteinase inhibitor cocktail (EMD Millipore, Billerica, USA)). Protein concentration was determined using the BCA Protein Assay kit (Thermo Scientific, Waltham, USA), following the manufacturer's instructions. Protein samples (10 μg) were mixed with Laemmeli sample buffer and heated at 95° C. for 5 minutes. Samples were loaded into a pre-cast 4-20% tris-glycine polyacrylamide gel (Invitrogen) using the NOVEX system (Invitrogen). Resolved proteins were transferred to nitrocellulose membrane (Whatman, Maidstone, UK) followed by blocking in PBS, 0.05% Tween-20 with 5% w/v non-fat dry milk for 1 hour at room temperature (RT). Membranes were incubated overnight at 4° C. in 5% BSA, 0.1% Tween-20 in PBS containing antibodies that recognize either phosphorylated Erk1/2, total Erk1/2 (Cell Signaling). […] Primary antibodies were detected with HRP conjugated anti-IgG (Thermo) and the Pierce SuperSignal detection kit. Chemiluminescence ignal was captured with a FluorChem 8900 analysis system (Alpha Innotech, San Leandro, USA)."}},
  "note": "Read-outs that look alike come from different tables or passages of the source.",
  "data": [
    {"compound": "COc1cccc(-c2cc(=O)c3ccccc3o2)c1N", "note": "[PD98059]", "values": [
      {"measurement": "invasion/branching in sparse CL-1 gels", "setting": "[1]", "result": "reduced invasion/branching"},
      {"measurement": "Itgb1 level", "setting": "Mmp14 and Itgb1", "result": "reduced"},
      {"measurement": "Mmp14 level", "setting": "Mmp14 and Itgb1", "result": "reduced"},
      {"measurement": "Itgb1 level", "setting": "Mmp14 and Itgb1; listed as PD95089", "result": "reduced expression"},
      {"measurement": "Mmp14 level", "setting": "Mmp14 and Itgb1; listed as PD95089", "result": "reduced expression"}
    ]},
    {"compound": "recombinant HSP90β: recombinant HSP90β protein purchased from Calbiochem/EMD Millipore", "values": [
      {"measurement": "invasion of FL and EA-SCp2 cells", "setting": "SCp2 cells", "result": "enhanced invasion significantly"},
      {"measurement": "invasion of dPEX-SCp2 or control cells", "setting": "SCp2 cells", "result": "did not raise the invasive potential"},
      {"measurement": "invasion and branching of mammary organoids", "setting": "[2]; 3 mg/mL Col-1, 3 d, TGFα", "result": "most exuberant branched structures"},
      {"measurement": "spatial network per organoid", "setting": "[2]; organoids overexpressing FL MMP3, 3 mg/mL Col-1, 3 d", "result": "longest spatial network observed so far"}
    ]},
    {"compound": "CNC(=O)[C@H](Cc1c[nH]c2ccccc12)NC(=O)[C@@H](CC(=O)NO)CC(C)C", "note": "[GM6001]", "values": [
      {"measurement": "invasion/branching in dense CL-1 gels", "setting": "[1]; dense CL-1 3 mg/ml", "result": "completely abrogated"},
      {"measurement": "invasion/branching in sparse CL-1 gels", "setting": "[1]", "result": "still invaded"},
      {"measurement": "MAPK activation (pErk/total Erk)", "setting": "Erk", "result": "did not change"}
    ]},
    {"compound": "CCc1cc(-c2n[nH]c(C)c2-c2ccc3c(c2)OCCO3)c(O)cc1O", "note": "[CCT018159]", "values": [
      {"measurement": "invasion of FL and EA-SCp2 cells", "setting": "SCp2 cells", "result": "reduced invasion"},
      {"measurement": "invasion of dPEX-SCp2 or control cells", "setting": "SCp2 cells", "result": "no significant effect"}
    ]}
  ]
}
